Assay results: paper PMC12014616, “HPLC-UV method development and validation for anticancer drug sorafenib and the co-prescribed drug dexamethasone: application to pharmacokinetic evaluation of sorafenib nanoformulations” (Frontiers in Pharmacology, 2025)

Assay: Stability of sorafenib-spiked plasma samples at different storage conditions
Format: physicochemical
Protocol: The plasma was separated from the blood by centrifugation at 8,000 rpm for 10 min at […]. The plasma (200 µL) was spiked with sorafenib, dexamethasone, and IS, the protein was precipitated with acetonitrile, and the extraction of the analytes was carried out with ACN, MeOH, and DCM. The following plan was applied to obtain the sample (Figure 2), and a sample (20 µL) was applied for analysis.
Linearity was confirmed through least squares regression, while sensitivity was measured on the basis of the S/N ratio of HPLC software. The S/N ratios are 3 and 10 for LOD and LOQ, respectively. Similar robustness was tested through planned changes in parameters while stability studies were performed at different storage conditions (‒20°C, 4°C, and 25°C) for a month using Equation 3. % Stability=St/So X 100, (3) where St indicates stability at time t, and S0 indicates stability at time 0.

% Recovery (Mean ± SD) (4°C, 6 hours, 250 ng/mL): 98.13 ± 0.19; 0.19% | % Recovery (Mean ± SD) (4°C, 6 hours, 500 ng/mL): 98.29 ± 0.65; 0.66% | % Recovery (Mean ± SD) (4°C, 6 hours, 1,000 ng/mL): 98.91 ± 0.91; 0.92% | % Recovery (Mean ± SD) (4°C, 24 hours, 250 ng/mL): 98.11 ± 0.38; 0.77% | % Recovery (Mean ± SD) (4°C, 24 hours, 500 ng/mL): 98.30 ± 0.67; 0.68% | % Recovery (Mean ± SD) (4°C, 24 hours, 1,000 ng/mL): 98.05 ± 0.68; 0.69% | % Recovery (Mean ± SD) (4°C, 72 hours, 250 ng/mL): 97.36 ± 0.85; 0.87% | % Recovery (Mean ± SD) (4°C, 72 hours, 500 ng/mL): 96.99 ± 0.32; 0.33% | % Recovery (Mean ± SD) (4°C, 72 hours, 1,000 ng/mL): 96.93 ± 0.48; 0.50% | % Recovery (Mean ± SD) (25°C, 0 hours, 250 ng/mL): 98.15 ± 0.44; 0.45% | % Recovery (Mean ± SD) (25°C, 0 hours, 500 ng/mL): 98.25 ± 0.55; 0.56% | % Recovery (Mean ± SD) (25°C, 0 hours, 1,000 ng/mL): 98.55 ± 0.19; 0.19% | % Recovery (Mean ± SD) (25°C, 6 hours, 250 ng/mL): 97.45 ± 0.34; 0.35% | % Recovery (Mean ± SD) (25°C, 6 hours, 500 ng/mL): 97.39 ± 0.12; 0.12% | % Recovery (Mean ± SD) (25°C, 6 hours, 1,000 ng/mL): 98.05 ± 0.15; 0.15% | % Recovery (Mean ± SD) (25°C, 24 hours, 250 ng/mL): 95.51 ± 0.53; 0.55% | % Recovery (Mean ± SD) (25°C, 24 hours, 500 ng/mL): 96.05 ± 0.41; 0.43% | % Recovery (Mean ± SD) (25°C, 24 hours, 1,000 ng/mL): 97.55 ± 0.26; 0.27% | % Recovery (Mean ± SD) (25°C, 72 hours, 250 ng/mL): 85.90 ± 0.50; 0.58% | % Recovery (Mean ± SD) (25°C, 72 hours, 500 ng/mL): 84.95 ± 0.34; 0.40% | % Recovery (Mean ± SD) (25°C, 72 hours, 1,000 ng/mL): 88.25 ± 0.74; 0.84% | % Recovery (Mean ± SD) (freeze and thaw 3x, 250 ng/mL): 96.41 ± 0.17; 0.18% | % Recovery (Mean ± SD) (freeze and thaw 3x, 500 ng/mL): 97.05 ± 0.22; 0.23% | % Recovery (Mean ± SD) (freeze and thaw 3x, 1,000 ng/mL): 98.00 ± 0.87; 0.89%
Compound: CNC(=O)c1cc(Oc2ccc(NC(=O)Nc3ccc(Cl)c(C(F)(F)F)c3)cc2)ccn1 [sorafenib, Sorafenib]
